According to patent US8962621B2 (Shanghai Institute of Pharmaceutical Industry, priority 2010, dated 2015):

Legend:
[1] = tested on: NA reuptake; experiment: Yohimbine toxicity enhancement in mice; assay type: in vivo; conditions: for Mortality (%) 1 h / Mortality (%) 2 h / Mortality (%) 4 h / Mortality (%) 5 h / Mortality (%) 24 h: Yohimbine 25 mg/kg s.c. 1 h later, n = 10
From the text: Tests of the 5-hydroxytryptophan (DL-5-HTP) potentiation in mice, Yohimbine toxicity enhancement in mice and oxidation tremors can verify a compound's inhibition effect on 5-HT, NA and DA reuptake. Compound VI-2 is selected for the tests.
a) Principles • Yohimbine can prevent the binding of NA to the receptor by occupying α2 receptor. If an antidepressant which inhibits the deactivation of NA or inhibits NA reuptake is taken together with Yohimbine, an individual may be poisoned even to death due to the raised NA concentration.
b) Test Method • This test consists of 5 experimental groups: Yohimbine control group, VI-2-1 (30 mg/kg) group, VI-2-2 (18 mg/kg) group, VI2-3 (11 mg/kg) group and VI-2-4 (6.5 mg/kg) group. The highest dose used in the DL-5-HTP potentiation test in mice is designated as the reference for the highest dose group, down from which 4 dosage groups are set with a dose ratio of 0.6 across groups. For each VI-2 group, the compound at the corresponding dosage is administrated orally, or as in the case of the Yohimbine control group, N.S is given to the animals. One hour after the treatment, Yohimbine at 25 mg/kg (life-threatening dose for the animal) is administrated by subcutaneous injection to the mice in all groups. The mortality in each group is observed and recorded at 1, 2, 4, 5 and 24 h after the administration of Yohimbine. The ED50 value is calculated accordingly.

[2] = tested on: Histidine auxotroph mutant of mouse salmonella TA97, TA98, TA100 and TA102; assay type: cell-based
From the text: 5. […] 6. Bacterial Reverse Mutation Test of Compounds VI-1 VI-2 and VI16 • Strains: Histidine auxotroph mutant of mouse salmonella TA97, TA98, TA100 and TA102. • Test method: The one reported in Maron DM et al: (1983) Mutay Res. 113, 173-216 is used. • Results: The test consists of two parts, i.e., −S9 and +S9. […] No bacteriostatic actions to all the strains are observed at all the other dosages, and the growth background is good.

[3] = target: DA Transporter (hDAT) (Homo sapiens, UniProt Q01959); experiment: Inhibition of [3H]-DA reuptake in HEK 293 cells stably expressing hDAT; conditions: HEK293, read-out: DA Reuptake Inhibition
DA Transporter (hDAT), sequence (Q01959 whole entry): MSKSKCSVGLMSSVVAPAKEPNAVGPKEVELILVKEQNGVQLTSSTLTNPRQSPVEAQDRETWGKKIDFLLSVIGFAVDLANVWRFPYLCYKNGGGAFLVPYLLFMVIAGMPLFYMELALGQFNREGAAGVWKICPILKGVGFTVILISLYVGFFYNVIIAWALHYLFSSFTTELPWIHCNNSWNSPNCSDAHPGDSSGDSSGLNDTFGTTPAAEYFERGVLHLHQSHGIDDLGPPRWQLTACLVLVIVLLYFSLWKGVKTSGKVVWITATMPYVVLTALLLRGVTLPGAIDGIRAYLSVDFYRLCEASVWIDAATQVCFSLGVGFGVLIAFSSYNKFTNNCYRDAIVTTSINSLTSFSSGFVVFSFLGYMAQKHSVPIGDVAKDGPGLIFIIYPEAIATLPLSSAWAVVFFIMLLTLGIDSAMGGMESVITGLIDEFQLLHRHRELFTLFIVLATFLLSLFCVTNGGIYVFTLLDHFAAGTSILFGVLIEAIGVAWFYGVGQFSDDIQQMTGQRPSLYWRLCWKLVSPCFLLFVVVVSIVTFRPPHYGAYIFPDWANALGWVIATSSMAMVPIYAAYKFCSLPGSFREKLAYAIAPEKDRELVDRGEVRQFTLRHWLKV

## CN(C)CCC(c1ccc(Cl)c(Cl)c1)N1CCCC1 (stereo not shown) [VI-2, N,N-dimethyl-3-(3,4-dichlorophenyl)-3-(pyrrolidin-1-yl)-propylamine]
[1]; 6.5 mg/kg oral
  Mortality (%) 1 h: 0%
  Mortality (%) 2 h: 0%
  Mortality (%) 4 h: 0%
  Mortality (%) 5 h: 0%
  Mortality (%) 24 h: 0%
[1]; 11 mg/kg oral
  Mortality (%) 1 h: 0%
  Mortality (%) 2 h: 1%
  Mortality (%) 4 h: 0%
  Mortality (%) 5 h: 0%
  Mortality (%) 24 h: 0%
[1]; 18 mg/kg oral
  Mortality (%) 1 h: 1%
  Mortality (%) 2 h: 2%
  Mortality (%) 4 h: 0%
  Mortality (%) 5 h: 0%
  Mortality (%) 24 h: 0%
[1]; 30 mg/kg oral
  Mortality (%) 1 h: 2%
  Mortality (%) 2 h: 0%
  Mortality (%) 4 h: 0%
  Mortality (%) 5 h: 0%
  Mortality (%) 24 h: 0%
[1]; 30, 18 and 11 mg/kg oral, significant dose-effect relationship
  enhancement of Yohimbine toxicity (in words): enhances the toxicity of Yohimbine
[1]; Mus musculus, oral, Bliss method, DAS statistical software
  ED50: 32.8 mg/kg
[2]; 5000 μg per dish, TA98 without S9 and TA97 with S9, none at other dosages
  bacteriostatic action: bacteriostatic action is showed
[2]; TA97, TA98, TA100, TA102, with or without S9, all test dosages
  Ames test result: negative
[3]
  inhibition at 10 µM: 103%
